In patent publication US12304894B2, “Derivatives of adamantyl oxadiazoles and pharmaceutically acceptable solvates, hydrates and salts thereof, pharmaceutical composition comprising same, synthesis method, suitable for use as effective and selective inhibitors of the reductase activity of the enzyme 11-beta dehydrogenase type 1 …” (PONTIFICIA UNIVERSIDAD CATOLICA DE CHILE, priority 2019, dated 2025):
≈ marks a conversion by molar mass, not a printed value.

Legend:
[1] = target: T1, recombinant 11β-HSD1 enzyme (Homo sapiens (Human), UniProt P28845); test: 11β-HSD1 reductase activity (HTRF Cortisol Kit); format: biochemical; conditions: 266 nM cortisone, 333 μM NADPH, read-out: 11b-HSD1 reductase (HTRF) IC50
T1 sequence (P28845 whole entry): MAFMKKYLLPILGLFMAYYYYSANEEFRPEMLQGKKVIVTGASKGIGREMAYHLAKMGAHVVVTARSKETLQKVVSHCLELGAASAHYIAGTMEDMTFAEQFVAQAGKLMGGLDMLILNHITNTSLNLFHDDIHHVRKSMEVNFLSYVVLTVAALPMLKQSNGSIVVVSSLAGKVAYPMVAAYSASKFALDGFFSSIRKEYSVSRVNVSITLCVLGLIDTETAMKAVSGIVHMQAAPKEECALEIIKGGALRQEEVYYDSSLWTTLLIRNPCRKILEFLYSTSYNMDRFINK
Experimental: Determination of 11β-HSD1 Reductase Activity
First, stock solutions of the compounds were prepared in DMSO at a concentration of […], of which serial dilutions were made in order to determine the efficacy curve.
As for the recombinant 11β-HSD1 enzyme (Cayman Chemical, MI, USA; Item No. 10007815), it was prepared in Tris Buffer 20 mM EDTA 5 mM pH 6.0 (Tris buffer) at different dilutions.
Initially, the enzyme concentration to be used in the assays in order to evaluate the biological activity of the compounds was determined. The Cortisol Kit product (Cisbio, MA, USA; Cat no. 62CRTPEG) was used for that purpose.
The protocol consisted of preparing the reaction buffer, adding 266 nM cortisone and 333 μM NADPH in Tris buffer. Then, this reaction buffer is added to the wells of the HTRF (Homogeneous Time Resolved Fluorescence) reaction plate together with the enzyme in a 4:1 ratio respectively, and incubated for 2 hours at 37° C. In the case of the control wells, two wells with Tris buffer were added, without compounds.
After the incubation time, the reagents of the Cortisol kit were added, Cortisol d2 and Cortisol cryptate in sample ratio, Cortisol d2 and cortisol cryptate 2:1:1, in a quantity according to the size of the well as indicated by the supplier (for the negative control of the kit, the cortisol d2 is replaced by the kit's reconstitution buffer). This reaction is incubated for 1 hour at room temperature in order to later read the fluorescence at 665 and 620 nm.
Once the enzyme concentration to be used has been determined, the cortisol kit protocol is continued to determine the efficacy curve for the compounds. As previously done, a plate for HTRF was prepared adding to each well of the reaction buffer, the recombinant 11β-HSD1 enzyme and the compounds to be assayed in a 3:1:1 ratio, respectively. The plate was subsequently incubated at 37° C. for 2 hours.
After the incubation time, the reagents of the cortisol kit, cortisol d2 and cortisol cryptate, are added, and were incubated again for 1 hour at room temperature. Finally, the fluorescence of each well was determined at 665 and 620 nm.

[2] = target: T1, recombinant 11β-HSD1 enzyme; test: 11β-HSD1 oxidase activity (HTRF Cortisol Kit); format: biochemical
Experimental: Determination of 11β-HSD1 Oxidase Activity
The Cortisol Kit (Cisbio) product was used for that purpose.
For the analysis, the compounds are reconstituted in DMSO in a stock of 10 mM concentration, from which serial dilutions were prepared for the efficiency curve.
The recombinant 11β-HSD1 enzyme dilutions were prepared in 20 mM Tris Buffer 5 mM EDTA pH 6.0 (Tris buffer).
Initially, the enzyme concentration to be used was determined. For this purpose, a plate for HRTF was prepared with Tris buffer with 100 nM cortisol and 200 μM NADP+, including in the wells of the plate for HTRF together with the enzyme in a 4:1 ratio, respectively, and incubated for 2 hours at 37° C. After this time, the reagents of the Cortisol kit, Cortisol d2 and Cortisol cryptate in sample ratio, Cortisol d2 and cortisol cryptate 2:1:1 were added, incubating this new reaction for 1 hour at room temperature. Subsequently, the fluorescence was determined at 665 and 620 nm.
An HRTF plate was again prepared, where the reaction buffer, the recombinant 11β-HSD1 enzyme and the compound were added in each well in a 3:1:1 ratio, respectively. The plate was incubated at 37° C. for 2 hours. After the incubation time, the reagents of the cortisol kit, cortisol d2 and cortisol cryptate, were added as indicated above. They were then incubated at room temperature for 1 hour to finally read the fluorescence at 665 and 620 nm.

[3] = Aqueous solubility in the gastrointestinal pH range; format: physicochemical
Experimental: A stock solution of 100 mM was prepared in DMSO that was added in volumes established on the buffers until the appearance of turbidity was observed. These solutions were prepared in triplicate in final DMSO concentrations of 0.5 to 5.0% V/V of each buffer, then were incubated at 37° C. with vigorous stirring for 48 hours, then another 48 hours but without stirring. The samples were centrifuged and the supernatant was diluted with mobile phase chromatography to be later analyzed by μHPLC-Ms/Ms. The solubility value at each pH was obtained from the intercept of the straight line solubility versus % DMSO. Table 6 presents the aqueous solubility values of BD-40 in the pH range 1.2-6.8.

Cc1cccc(CCc2nc(C34CC5CC(CC(C5)C3)C4)no2)c1 [BD-40, 1-(3-methylphenyl)-2-(3-adamantyl-1,2,4-oxadiazol-5-yl)ethane]
IC50 [1]: 11.8 nM | 11b-HSD1 oxidase (activ rem %) 100 nM ([2]; remaining activity at 100 nM compound): 92.1% | 11b-HSD1 oxidase (activ rem %) 100 uM ([2]; remaining activity at 100 uM compound): 89.9% | Solubility ([3]; pH 1.7, 37° C.): 96.16 µg/mL (≈ 298 µM) | Solubility ([3]; pH 4.5, 37° C.): 64.12 µg/mL (≈ 199 µM) | Solubility ([3]; pH 6.8, 37° C.): 59.23 µg/mL (≈ 184 µM)
